Laboratory results from PMC11720699, “Developing Allosteric Chaperones for GBA1-Associated Disorders—An Integrated Computational and Experimental Approach” (International Journal of Molecular Sciences, 2024).

Experiments:
[1] = NeuroPK: plasma and brain levels after i.v. administration; type: in vivo, male C57BL/6 mice; settings: mouse, i.v. 10 mg/kg
Procedure: Finally, we investigated whether compound 3 can cross the BBB and enter the central nervous system following intravenous (i.v.) administration. This is a preliminary step in developing the compound as a disease-modifying therapy for neuropathic GD and other neurological disorders linked to GBA mutations, such as PD and other synucleinopathies. Pharmacokinetics and brain penetrability were assessed by measuring the levels of compound 3 in brain tissue and plasma after intravenous administration (10 mg/kg) in wild-type mice.
The brain penetration of compound 3 following intravenous injection was evaluated as follows. Nine male C57BL/6 mice received an intravenous dose of 10 mg/kg of the compound in a solution formulation consisting of 5% v/v NMP (N-methyl-2-pyrrolidone), 10% v/v Solutol® HS-15, 30% v/v PEG-400, and […]. Blood samples (approximately 60 µL) were collected under light isoflurane anesthesia from three mice at each of the following time points: 0.25, 2, and 8 h. Plasma was obtained by centrifuging the blood and stored at −70 ± 10 °C until analysis. Brain samples were also collected from each mouse at the respective time points. Tissue samples were homogenized using ice-cold phosphate-buffered saline (pH 7.4), and the homogenates were stored below −70 °C until analysis. The total homogenate volume was three times the brain weight.
The concentration-time data from plasma and brain samples were used for pharmacokinetic analysis. Both plasma and brain samples were quantified using a fit-for-purpose LC-MS/MS method, with a lower limit of quantification (LLOQ) of 1.00 ng/mL for plasma and 2.00 ng/mL for the brain. The LC conditions were as follows: Thermo Scientific™ Accucore™ C18 column (2.7 µm, 50 mm × 2.1 mm), run time of 1.6 min, injection volume of 1 µL, and flow rate of 0.8 mL/min. The mobile phase consisted of 0.1% formic acid in acetonitrile (A) and 10 mM ammonium formate (B), with the following gradient: 0.00 min/95% B, 0.30 min/95% B, 0.50 min/5% B, 1.20 min/5% B, 1.40 min/95% B, and 1.60 min/95% B.

[2] = system: GlcSph; assay: GlcSph quantification by LC/MS-MS in differentiated BE(2)-M17 cells; type: cell-based, human; settings: GBA1 mutant BE(2)-M17 cell lines, 10 days, 25 µM
Description: Our neuronal model uses stable BE(2)-M17 dopaminergic-like neuronal cell lines that constitutively express two prevalent GBA1 mutations, p.N370S and p.L444P [37]. These neuronal cell lines undergo post-mitotic differentiation and display a dopaminergic phenotype, neurite extension, and sphingolipid accumulation. Therefore, they serve as an excellent model for evaluating the biological efficacy of therapeutic interventions, such as our PCs, aimed at restoring GCase activity in vitro. Subsequently, we induced differentiation of BE(2)-M17 cell lines into post-mitotic neuronal cells, a crucial step for investigating the effects of lysosomal system impairment and its consequences in terms of intracellular macromolecule accumulation. Following differentiation, cells were treated for an extended period (10 days) with the selected compounds to analyze their impact on GCase stability, GCase activity, sphingolipid accumulation, and cell viability. […]
For BE(2)-M17 samples, lipid extraction to quantify sphingolipids was conducted as outlined in Navarro-Romero et al.. […] The supernatant was evaporated to dryness under a stream of nitrogen and reconstituted with 500 µL of methanol:chloroform (1:2) before being transferred into chromatography vials for quantification via liquid chromatography tandem-mass spectrometry (LC-MS/MS). […]

SMILES: CN(C(=O)c1cc(N)cc(Nc2cccc3c2OCO3)n1)c1ccccc1 [Compound 3]
- Kp at […] ([1]; male, C57BL/6, brain/plasma, iv, 0.25 h): 4.37
- Kp at 2 h ([1]; male, C57BL/6, brain/plasma, iv, 2 h): 3.29
- Kp at 8 h ([1]; male, C57BL/6, brain/plasma, iv, 8 h): 1.16
- concentration at […] ([1]; male, C57BL/6, plasma, iv, 0.25 h): 1970 ng/mL
- concentration at 2 h ([1]; male, C57BL/6, plasma, iv, 2 h): 65.1 ng/mL
- concentration at 8 h ([1]; male, C57BL/6, plasma, iv, 8 h): 11.4 ng/mL
- Brain Concentration ([1]; 2 h): 221.14 n/g
- Brain Concentration ([1]; 8 h): 13.64 n/g
- effect on GlcSph (sphingolipid) levels [2]: effectively reduced accumulated sphingolipid levels
